Article PMC9852841, “Expanding the toolbox of metabolically stable lipid prodrug strategies” (Frontiers in Pharmacology, 2023)
Like-named read-outs stand apart in the source and are kept apart here.

Experiments:
[1] = test system: VSV pseudotype HIV-like viral particles; assay: organism not typed; type: cell-based; settings: for IC50: read-out: HIV IC50
[2] = Metabolic stability in human liver microsomes; settings: for HLM stability (in words) / HLM t1/2: human liver microsomes; for HLM t1/2 / half-life at 3 µM: 3 μM prodrug, NADPH, 0-120 min; for microsomal CLint at 3 µM / half-life at 3 µM: human, microsomes; for microsomal CLint at 3 µM: pH 7.4; for half-life at 3 µM: pH 7.4, HLM t1/2, human liver microsomes
[3] = Cytotoxicity assay (cell viability, CellTiter 96 or resazurin); settings: human, HEK293T cells
[4] = Solubility observations (aqueous, HSA formulations, growth media); type: physicochemical; settings: observational, relative to TXL
[5] = dogs, single TAF dose
[6] = dogs, single TAF dose, cited from earlier work
[7] = in vitro; settings: human, microsomes, pH 7.4
[8] = test system: VSV pseudotype HIV-like viral particles; design: method as in Pribut et al., 2021; settings: preliminary pseudoviral assay results; ref Pribut et al., 2021; cited from earlier work

SMILES	IC50 ([1]; HEK-293T, 48 h) [nM]	HLM t1/2 [2] [min]	microsomal CLint at 3 µM [2] [µL/min/mg]	other results
CCCCOCCCCCOCCCCCOCCCOP(=O)(O)CO[C@H](C)Cn1cnc2c(N)ncnc21.N [Compound 10, Ammonium [(1R)-2-(6-aminopurin-9-yl)-1-methyl-ethoxy]methyl-[3-[5-(5-butoxypentoxy)pentoxy]propoxy]phosphinate]	> 32000			antiviral activity (in words) [1]: completely abrogated antiviral activity; loss of antiviral activity [1]: > 1,800 fold
CCCCCCCCOCCCCCOCCCCCOP(=O)(O)CO[C@H](C)Cn1cnc2c(N)ncnc21.N [Compound 11, Ammonium 5-(5-octoxypentoxy)pentoxy-[[(1R)-2-(6-aminopurin-9-yl)-1-methyl-ethoxy]methyl]phosphinate]	4050	12	58.6	HLM stability (in words) [2]: less stable in HLM relative to TXL; half-life at 3 µM [2]: 11.8 min; antiviral activity (in words) [1]: low μM range; decay of antiviral activity with inclusion of the second oxygen atom [1]: 78 fold
COCCOCCOCCOCCOCCOCCOP(=O)(O)CO[C@H](C)Cn1cnc2c(N)ncnc21.N [Compound 12, Ammonium 2,5,8,11,14,17-hexaoxanonadecan-19-yl (R)-(((1-(6-amino-9H-purin-9-yl)propan-2-yl)oxy)methyl)phosphonate]	31200			CC50 at 48 h [3]: > 100000 nM; aqueous solubility (in words) [4]: observationally increased aqueous solubility; IC50 [1]: 34600 nM
COCCOCCOCCOCCOP(=O)(O)CO[C@H](C)Cn1cnc2c(N)ncnc21.N [Compound 13, Ammonium [(1R)-2-(6-aminopurin-9-yl)-1-methyl-ethoxy]methyl-[2-[2-[2-(2-methoxyethoxy)ethoxy]ethoxy]ethoxy]phosphinate]	26700			CC50 at 48 h [3]: > 100000 nM; aqueous solubility (in words) [4]: observationally increased aqueous solubility; IC50 [1]: 23400 nM
COCCOCCOP(=O)(O)CO[C@H](C)Cn1cnc2c(N)ncnc21.N [Compound 14, Ammonium [(1R)-2-(6-aminopurin-9-yl)-1-methyl-ethoxy]methyl-[2-(2-methoxyethoxy)ethoxy]phosphinate]	21400			CC50 at 48 h [3]: > 100000 nM; aqueous solubility (in words) [4]: observationally increased aqueous solubility; IC50 [1]: 19400 nM
CCCCCCCCCCCCCCCCCOCCOP(=O)(O)CO[C@H](C)Cn1cnc2c(N)ncnc21.N [Compound 18, Ammonium 2-heptadecoxyethoxy-[[(1R)-2-(6-aminopurin-9-yl)-1-methyl-ethoxy]methyl]phosphinate]	3	35	19.8	half-life at 3 µM [2]: 34.9 min; boost in potency relative to analogue 20 [1]: 17 fold
CCCCCCCCCCCCCCCOCCCCOP(=O)(O)CO[C@H](C)Cn1cnc2c(N)ncnc21.N [Compound 19, Ammonium 4-pentadecoxybutoxy-[[(1R)-2-(6-aminopurin-9-yl)-1-methyl-ethoxy]methyl]phosphinate]	30	48	14.4	
CCCCCCCCCCCCCCOCCCCCOP(=O)(O)CO[C@H](C)Cn1cnc2c(N)ncnc21.N [Compound 20, Ammonium [(1R)-2-(6-aminopurin-9-yl)-1-methyl-ethoxy]methyl-(5-tetradecoxypentoxy)phosphinate]	52	31	22.5	half-life at 3 µM [2]: 30.9 min
CCCCCCCCCCCCCCCCCCOCCOP(=O)(O)CO[C@H](C)Cn1cnc2c(N)ncnc21.N [Compound 21, Ammonium 2-octadecoxyethoxy-[[(1R)-2-(6-aminopurin-9-yl)-1-methyl-ethoxy]methyl]phosphinate]	3	105	6.6	HLM stability (in words) [2]: improved stability in HLM
C[C@H](Cn1cnc2c(N)ncnc21)OCP(=O)(O)OCCOCCCCCCCCCCCCCC#CC(F)(F)F.N [Compound 32, Ammonium 2-((16,16,16-trifluorohexadec-14-yn-1-yl)oxy)ethyl (R)-(((1-(6-amino-9h-purin-9-yl)propan-2-yl)oxy)methyl)phosphonate]	16	>120	< 5.78	
C[C@H](Cn1cnc2c(N)ncnc21)OCP(=O)(O)OCCOCCCCCCCCCCCCCCC#CC(F)(F)F.N [Compound 33, Ammonium 2-((17,17,17-trifluoroheptadec-15-yn-1-yl)oxy)ethyl (R)-(((1-(6-amino-9h-purin-9-yl)propan-2-yl)oxy)methyl)phosphonate]	10.6	>120	< 5.78	
C[C@H](Cn1cnc2c(N)ncnc21)OCP(=O)(O)OCCOCCCCCCCCCCCCCCCC(F)(F)F.N [Compound 36, Ammonium 2-((16,16,16-trifluorohexadecyl)oxy)ethyl (R)-(((1-(6-amino-9H-purin-9-yl)propan-2-yl)oxy)methyl)phosphonate]	8.8	>120	< 5.78	
C[C@H](Cn1cnc2c(N)ncnc21)OCP(=O)(O)OCCOCCCCCCCCCCCCCCCCC(F)(F)F.N [Compound 37, Ammonium 2-((17,17,17-trifluoroheptadecyl)oxy)ethyl (R)-(((1-(6-amino-9h-purin-9-yl)propan-2-yl)oxy)methyl)phosphonate]	12.6	>120	< 5.78	
C[C@H](Cn1cnc2c(N)ncnc21)OCP(=O)(O)OCCOCCCCCCCCCCC#Cc1ccc(S(F)(F)(F)(F)F)cc1.N [Compound 40, Ammonium [(1R)-2-(6-aminopurin-9-yl)-1-methyl-ethoxy]methyl-[2-[12-[4-(pentafluorosulfanyl)phenyl]dodec-11-ynoxy]ethoxy]phosphinate]	14.6	>120	< 5.78	
C[C@H](Cn1cnc2c(N)ncnc21)OCP(=O)(O)OCCOCCCCCCCCCCCCc1ccc(S(F)(F)(F)(F)F)cc1.N [Compound 42, Ammonium [(1R)-2-(6-aminopurin-9-yl)-1-methyl-ethoxy]methyl-[2-[12-[4-(pentafluorosulfanyl)phenyl]dodecoxy]ethoxy]phosphinate]	25.4	>120	< 5.78	
CC(C)OC(=O)[C@H](C)N[P@](=O)(CO[C@H](C)Cn1cnc2c(N)ncnc21)Oc1ccccc1 [TAF, tenofovir alafenamide]				fraction of dose remaining available to access HIV-infected cells [5]: 18%; fraction of dose sequestered for toxic side effects [5]: 82%; fraction of dose extracted by the liver ([6]; ref Babusis et al., 2013): 65%; fraction of a single dose converted to plasma TFV ([6]; ref Lee et al., 2005): 17%
CCCCCCCCCCCCCCCCOCCCOP(=O)(O)CO[C@H](C)Cn1cnc2c(N)ncnc21 [TXL, tenofovir Exalidex, reference compound]	18	41.6		microsomal CLint [7]: 16.7 µL/min/mg; half-life at 3 µM [2]: 42 min
CCCCCCCCCCCCCCCCCCCCOP(=O)(O)COC(C)Cn1cnc2c(N)ncnc21 (centres unmarked) [arachidyl TFV]				IC50 [8]: 127 nM
